Tested on: T1, B. licheniformis DMN6 trypsin (arginine-specific alkaline trypsin)
T1 construct: gene BLDMN6; native secreted enzyme purified from DMN6 culture supernatant (DEAE, Superdex 75); 44 kDa by SDS-PAGE
Experiment: spectrophotometric hydrolysis at […] nm, Lineweaver-Burk
Assay type: biochemical, Bacillus licheniformis
Details: 25 °C, 50 mM Tris-HCl pH 9.0, 0.1-1.5 mM BAEE

- Km: 880 µM
Structure (SMILES): CCOC(=O)[C@H](CCCNC(=N)N)NC(=O)c1ccccc1 [BAEE]

Source: paper PMC4691143, “Biochemical Characterization of An Arginine-Specific Alkaline Trypsin from Bacillus licheniformis” (International Journal of Molecular Sciences, 2015)
